What was measured:
[1] = tested on: barnyardgrass; assay: Test A pre-/postemergence herbicide test; type: in vivo, Echinochloa crus-galli
How it was run: (§1)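 Directed soil spray to seeded pots (preemergence) or spray onto one- to two-leaf seedlings 2–10 cm tall (postemergence); loam/sand substrate throughout. Evaluated visually after about 10 days against untreated plants, 0 = no effect, 100 = complete control.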

[2] = tested on: kochia; assay: Test A pre-/postemergence herbicide test; type: in vivo, Kochia scoparia
How it was run: as §1

[3] = tested on: ragweed; assay: Test A pre-/postemergence herbicide test; type: in vivo, Ambrosia elatior
How it was run: as §1

[4] = tested on: ryegrass, Italian; assay: Test A pre-/postemergence herbicide test; type: in vivo, Lolium multiflorum
How it was run: as §1

[5] = tested on: giant foxtail; assay: Test A pre-/postemergence herbicide test; type: in vivo, Setaria faberii
How it was run: as §1

[6] = tested on: pigweed; assay: Test A pre-/postemergence herbicide test; type: in vivo, Amaranthus retroflexus
How it was run: as §1

[7] = tested on: wheat; assay: Test A pre-/postemergence herbicide test; type: in vivo, Triticum aestivum; conditions: Postemergence
How it was run: as §1

[8] = tested on: corn; assay: Test A pre-/postemergence herbicide test; type: in vivo, Zea mays; conditions: Postemergence
How it was run: as §1

[9] = tested on: blackgrass; assay: Test A postemergence herbicide test; type: in vivo, Alopecurus myosuroides
How it was run: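 Potted in loam soil/sand blend; postemergence application at 1–2 leaf stage (2–10 cm). Greenhouse ~10 d. Visual injury vs untreated, 0–100 scale; 100 = complete control.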

[10] = tested on: galium; assay: Test A postemergence herbicide test; type: in vivo, Galium aparine
From the text: At the same time, plants selected from these crop and weed species and also blackgrass (Alopecurus myosuroides), and galium (catchweed bedstraw, Galium aparine) were planted in pots containing the same blend of loam soil and sand and treated with postemergence applications of test chemicals formulated in the same manner. Plants ranged in height from 2 to 10 cm and were in the one- to two-leaf stage for the postemergence treatment. Treated plants and untreated controls were maintained in a greenhouse for approximately 10 days, after which time all treated plants were compared to untreated controls and visually evaluated for injury. Plant response ratings, summarized in Table A, are based on a 0 to 100 scale where 0 is no effect and 100 is complete control. A dash (-) response means no test result.

[11] = 125 g ai/ha, visual rating, 0 to 100 scale, 0 no effect, 100 complete control, approximately 10 days, preemergence
[12] = Postemergence, 125 g ai/ha, 0 to 100 scale, 0 is no effect, 100 is complete control
[13] = preemergence, 500 g ai/ha, 0 to 100 scale, 0 is no effect and 100 is complete control
[14] = 125 g ai/ha, 0 to 100 scale, 0 is no effect, 100 is complete control
[15] = Postemergence, 1000 g ai/ha, 0 to 100 scale (0 no effect, 100 complete control)
[16] = preemergence, 1000 g ai/ha, 0 to 100 scale (0 no effect, 100 complete control)
[17] = preemergence, 1000 g ai/ha, 0 to 100 scale
[18] = 1000 g ai/ha, 0 to 100 scale (0 no effect, 100 complete control)

## COc1ccc(NC(=O)C2C(=O)NCC2c2cccc(C(F)(F)F)c2)cc1F (racemic) [Compound 188]
[1]; [11]
  Plant response rating, Barnyardgrass: 0
[1]; [12]
  Plant response rating, Barnyardgrass: 0
[1]; Postemergence, 500 g ai/ha
  Barnyardgrass plant response rating (0 to 100 scale, 0 is no effect, 100 is complete control): 0
[1]; [13]
  Plant response rating, Barnyardgrass: 0
[2]; [11]
  Plant response rating, Kochia: 0
[2]; [12]
  Plant response rating, Kochia: 0
[2]; Postemergence, 500 g ai/ha
  Kochia plant response rating (0 to 100 scale, 0 is no effect, 100 is complete control): 0
[2]; [13]
  Plant response rating, Kochia: 0
[3]; [11]
  Plant response rating, Ragweed: 0
[3]; [12]
  Plant response rating, Ragweed: 0
[3]; Postemergence, 500 g ai/ha
  Ragweed plant response rating (0 to 100 scale, 0 is no effect, 100 is complete control): 0
[3]; [13]
  Plant response rating, Ragweed: 0
[4]; [11]
  Plant response rating, Ryegrass, Italian: 0
[4]; [12]
  Plant response rating, Ryegrass, Italian: 0
[4]; Postemergence, 500 g ai/ha
  Ryegrass, Italian plant response rating (0 to 100 scale, 0 is no effect, 100 is complete control): 0
[4]; [13]
  Plant response rating, Ryegrass, Italian: 0
[5]; [11]
  Plant response rating, Foxtail, Giant: 0
[5]; [12]
  Plant response rating, Foxtail, Giant: 0
[5]; Postemergence, 500 g ai/ha
  Foxtail, Giant plant response rating (0 to 100 scale, 0 is no effect, 100 is complete control): 0
[5]; [13]
  Plant response rating, Foxtail, Giant: 0
[6]; [11]
  Plant response rating, Pigweed: 0
[6]; [12]
  Plant response rating, Pigweed: 0
[6]; Postemergence, 500 g ai/ha
  Pigweed plant response rating (0 to 100 scale, 0 is no effect, 100 is complete control): 0
[6]; [13]
  Plant response rating, Pigweed: 0
[7]; [14]
  Plant response rating, Wheat: 0
[7]; 500 g ai/ha
  Wheat plant response rating (0 to 100 scale, 0 is no effect, 100 is complete control): 0
[8]; [14]
  Plant response rating, Corn: 0
[8]; 500 g ai/ha
  Corn plant response rating (0 to 100 scale, 0 is no effect, 100 is complete control): 0
[9]; [14]
  Plant response rating, Blackgrass: 0
[9]; 500 g ai/ha
  Blackgrass plant response rating (0 to 100 scale, 0 is no effect, 100 is complete control): 0
[10]; [14]
  Plant response rating, Galium: 0
[10]; 500 g ai/ha
  Galium plant response rating (0 to 100 scale, 0 is no effect, 100 is complete control): 0

## O=C1NCC(c2cccc(-c3ccccc3C(F)(F)F)c2)C1C(=O)Nc1ccccc1C(F)(F)F (stereo not shown) [Compound 237]
[1]; [15]
  Plant response rating, Barnyardgrass: 20
[1]; [16]
  Plant response rating, Barnyardgrass: 60
[2]; [15]
  Plant response rating, Kochia: 0
[2]; [17]
  Plant response rating, Kochia: 0
[3]; [15]
  Plant response rating, Ragweed: 0
[3]; [17]
  Plant response rating, Ragweed: 0
[4]; [15]
  Plant response rating, Ryegrass, Italian: 0
[4]; [17]
  Plant response rating, Ryegrass, Italian: 0
[5]; [15]
  Plant response rating, Foxtail, Giant: 0
[5]; [17]
  Plant response rating, Foxtail, Giant: 80
[6]; [15]
  Plant response rating, Pigweed: 0
[6]; [17]
  Plant response rating, Pigweed: 0
[7]; [18]
  Plant response rating, Wheat: 0
[8]; [18]
  Plant response rating, Corn: 0
[9]; [18]
  Plant response rating, Blackgrass: 0
[10]; [18]
  Plant response rating, Galium: 0

## O=C1NCC(c2cccc(-c3ccccc3F)c2)C1C(=O)Nc1ccccc1C(F)(F)F (stereo not shown) [Compound 238]
[1]; [15]
  Plant response rating, Barnyardgrass: 30
[1]; [16]
  Plant response rating, Barnyardgrass: 50
[2]; [15]
  Plant response rating, Kochia: 0
[2]; [17]
  Plant response rating, Kochia: 0
[3]; [15]
  Plant response rating, Ragweed: 0
[3]; [17]
  Plant response rating, Ragweed: 0
[4]; [15]
  Plant response rating, Ryegrass, Italian: 0
[4]; [17]
  Plant response rating, Ryegrass, Italian: 0
[5]; [15]
  Plant response rating, Foxtail, Giant: 30
[5]; [17]
  Plant response rating, Foxtail, Giant: 90
[6]; [15]
  Plant response rating, Pigweed: 0
[6]; [17]
  Plant response rating, Pigweed: 0
[7]; [18]
  Plant response rating, Wheat: 0
[8]; [18]
  Plant response rating, Corn: 0
[9]; [18]
  Plant response rating, Blackgrass: 20
[10]; [18]
  Plant response rating, Galium: 20

— US10294202B2, “Pyrrolidinones as herbicides” (FMC Corporation, priority 2013, dated 2019)
